Consider 15 compounds from PubChem BioAssay (NCI).

Among the test systems are EKVX NSCLC; SK-OV-3 ovarian; KM12 colon; HOP-92 NSCLC; HOP-62 NSCLC; OVCAR-5 ovarian; SF-539 CNS; UACC-62 melanoma; COLO 205 colon; SN12C renal; HS 578T breast; UACC-257 melanoma; SK-MEL-28 melanoma; CCRF-CEM leukemia; NCI/ADR-RES ovarian; HL-60(TB) leukemia; MALME-3M melanoma.
Assay in all cases: DTP human tumour cell line panel, 48 h

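Exposure lasted 48 hours, with cells grown in 96-well plates and compounds tested at five concentrations. GI50: concentration for 50% inhibition of growth. The concentration for full growth arrest is given as TGI.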

`c1ccc(/N=C2\c3ccccc3CN2c2ccccn2)nc1`: the TGI (as a rule, the concentration giving total growth inhibition) is > 100 µM in the assay with EKVX NSCLC; > 100 µM with SK-OV-3 ovarian; > 100 µM in the assay with KM12 colon; 72.7 µM in the assay with HOP-92 NSCLC; > 100 µM with HOP-62 NSCLC; > 100 µM with OVCAR-5 ovarian. Further, the TGI with SF-539 CNS, with UACC-62 melanoma, in the assay with COLO 205 colon, in the assay on SN12C renal, in the assay on HS 578T breast and with UACC-257 melanoma was > 100 µM each time. Besides, the TGI with SK-MEL-28 melanoma was > 100 µM.
With `CC(C)(C)OC(=O)Nc1cc(-c2ccccc2)co1`, the total growth inhibition concentration (TGI) in the assay with EKVX NSCLC is > 100 µM; in the assay on SK-OV-3 ovarian it was > 100 µM; with KM12 colon, > 100 µM; in the assay with HOP-92 NSCLC it was 86.8 µM; in the assay with CCRF-CEM leukemia, > 100 µM; in the assay on HOP-62 NSCLC, > 100 µM. Besides, the concentration for total growth inhibition (TGI) in the assay on OVCAR-5 ovarian, in the assay on SF-539 CNS, with UACC-62 melanoma, with COLO 205 colon, in the assay on SN12C renal and in the assay on UACC-257 melanoma was > 100 µM each time. The total growth inhibition concentration (TGI) in the assay on NCI/ADR-RES ovarian, with HL-60(TB) leukemia and with SK-MEL-28 melanoma was > 100 µM in each case.
For `Cc1ccc(Nc2sc(C)cc2C#N)c([N+](=O)[O-])c1`, the TGI in the assay with EKVX NSCLC, in the assay with SK-OV-3 ovarian, in the assay with KM12 colon, in the assay with HOP-92 NSCLC, in the assay on CCRF-CEM leukemia and in the assay with HOP-62 NSCLC was > 100 µM in each case. Moreover, the concentration for total growth inhibition (TGI) in the assay on OVCAR-5 ovarian, in the assay with SF-539 CNS, in the assay on UACC-62 melanoma, with COLO 205 colon, with SN12C renal and with UACC-257 melanoma was > 100 µM in each case. The TGI with NCI/ADR-RES ovarian, in the assay with MALME-3M melanoma and with SK-MEL-28 melanoma was > 100 µM each time.
Regarding `CSc1nncc2[nH]cnc12`, the concentration for total growth inhibition (TGI) with EKVX NSCLC, in the assay on KM12 colon, in the assay on CCRF-CEM leukemia, in the assay on HOP-62 NSCLC, in the assay on OVCAR-5 ovarian and with SF-539 CNS was > 100 µM throughout. The TGI in the assay on UACC-62 melanoma, in the assay with COLO 205 colon, in the assay with SN12C renal, with HS 578T breast, in the assay with UACC-257 melanoma and with NCI/ADR-RES ovarian was > 100 µM throughout. The TGI in the assay on HL-60(TB) leukemia and in the assay on SK-MEL-28 melanoma was > 100 µM throughout.
As for `CC(=O)NNC(=S)/N=C/c1c(O)cc(C)oc1=O`, the TGI in the assay with EKVX NSCLC, in the assay on SK-OV-3 ovarian, with KM12 colon, in the assay on HOP-92 NSCLC, in the assay on HOP-62 NSCLC and in the assay with OVCAR-5 ovarian was > 100 µM throughout. The TGI in the assay on SF-539 CNS, in the assay on COLO 205 colon, with SN12C renal, with UACC-257 melanoma, in the assay with NCI/ADR-RES ovarian and in the assay with HL-60(TB) leukemia was > 100 µM throughout. The TGI in the assay on SK-MEL-28 melanoma was > 100 µM.
Take `CCc1n[nH]c(=O)n1NC(=O)c1ccccc1C(=O)O`: the concentration for total growth inhibition (TGI) in the assay with EKVX NSCLC, with SK-OV-3 ovarian, with KM12 colon, in the assay on HOP-92 NSCLC, with CCRF-CEM leukemia and in the assay on HOP-62 NSCLC was > 100 µM each time. For the same compound, the concentration for total growth inhibition (TGI) in the assay on OVCAR-5 ovarian, in the assay on SF-539 CNS, in the assay on UACC-62 melanoma, with COLO 205 colon, with SN12C renal and in the assay on UACC-257 melanoma was > 100 µM throughout. Besides, the TGI in the assay on NCI/ADR-RES ovarian and with SK-MEL-28 melanoma was > 100 µM each time.
As to `CC1C(c2ccc3c(c2)OCO3)c2cc3c(cc2OC1N1CCCCC1)OCO3` (stereo not given), the total growth inhibition concentration (TGI) with EKVX NSCLC, in the assay with KM12 colon, in the assay on CCRF-CEM leukemia, in the assay with HOP-62 NSCLC, in the assay on OVCAR-5 ovarian and in the assay on SF-539 CNS was > 100 µM in each case. Besides, the total growth inhibition concentration (TGI) in the assay on UACC-62 melanoma, in the assay with COLO 205 colon, in the assay with SN12C renal, with HS 578T breast, with UACC-257 melanoma and with NCI/ADR-RES ovarian was > 100 µM throughout. For the same compound, the concentration for total growth inhibition (TGI) in the assay on SK-MEL-28 melanoma was > 100 µM.
For `CCOC(=O)c1cc(=O)oc2c1N(C)c1ncccc1N2`, the TGI in the assay on SK-OV-3 ovarian, in the assay on KM12 colon, with HOP-62 NSCLC, with OVCAR-5 ovarian, with UACC-62 melanoma and in the assay with COLO 205 colon was > 100 µM in each case. Besides, the concentration for total growth inhibition (TGI) in the assay with SN12C renal, in the assay on HS 578T breast, with UACC-257 melanoma, with NCI/ADR-RES ovarian and in the assay on SK-MEL-28 melanoma was > 100 µM throughout.
For the compound `Cc1cc(O)c(/C=N/c2nc(-c3cccc([N+](=O)[O-])c3)cs2)c(=O)o1`, the TGI with EKVX NSCLC, in the assay on SK-OV-3 ovarian, with KM12 colon, in the assay with HOP-92 NSCLC, with HOP-62 NSCLC and in the assay on OVCAR-5 ovarian was > 100 µM throughout. Moreover, the TGI in the assay on SF-539 CNS, in the assay on UACC-62 melanoma, with COLO 205 colon, in the assay on SN12C renal, in the assay on UACC-257 melanoma and with NCI/ADR-RES ovarian was > 100 µM throughout. Moreover, the results for the TGI in the assay on HL-60(TB) leukemia and in the assay with SK-MEL-28 melanoma were 47.2 µM and > 100 µM, respectively.
Regarding `COc1ccc(N=C2C(=Nc3ccc(OC)cc3)N(S(=O)(=O)c3ccccc3)C(=S)N2c2ccc(OC)cc2)cc1`, the TGI in the assay with EKVX NSCLC, in the assay on SK-OV-3 ovarian, in the assay with KM12 colon, in the assay on HOP-92 NSCLC, in the assay on HOP-62 NSCLC and in the assay with OVCAR-5 ovarian was > 100 µM throughout. Also, the TGI in the assay with SF-539 CNS, in the assay with UACC-62 melanoma, in the assay on COLO 205 colon, in the assay with SN12C renal, in the assay on HS 578T breast and with NCI/ADR-RES ovarian was > 100 µM throughout. The TGI in the assay with SK-MEL-28 melanoma is > 100 µM.
For `O=C(O)c1cc(O)c2c(c1)Cc1cccc(O)c1C2=O`, the TGI with EKVX NSCLC was 80 µM; in the assay on SK-OV-3 ovarian, > 100 µM; in the assay with HOP-92 NSCLC it was 41.3 µM; in the assay on CCRF-CEM leukemia it was > 100 µM; in the assay on HOP-62 NSCLC it was 43 µM; in the assay with OVCAR-5 ovarian, > 100 µM. Moreover, the TGI in the assay on UACC-62 melanoma stood at 36.8 µM; in the assay with COLO 205 colon, 57.4 µM; in the assay with SN12C renal it was 33.9 µM; with UACC-257 melanoma, 67 µM; in the assay on NCI/ADR-RES ovarian it was 93.9 µM; in the assay on MALME-3M melanoma, 38.1 µM. Moreover, the concentration for total growth inhibition (TGI) was 47.2 µM in the assay with HL-60(TB) leukemia and > 100 µM in the assay on SK-MEL-28 melanoma.
With `Cn1c2ccccc2n2c(=O)c3cccnc3c(C#N)c12`, the TGI with EKVX NSCLC, in the assay on SK-OV-3 ovarian, in the assay on KM12 colon, in the assay with HOP-92 NSCLC, with HOP-62 NSCLC and with OVCAR-5 ovarian was > 100 µM each time. In addition, the total growth inhibition concentration (TGI) in the assay with SF-539 CNS, in the assay on COLO 205 colon, in the assay with SN12C renal, with UACC-257 melanoma, with NCI/ADR-RES ovarian and with MALME-3M melanoma was > 100 µM in each case. In the assay with SK-MEL-28 melanoma, the TGI is > 100 µM.
As for `O=C(NCCCCNCCCNC(=O)c1cc(-c2ccccc2)nc2ccccc12)c1cc(-c2ccccc2)nc2ccccc12`, the TGI came out at 3.52 µM in the assay with EKVX NSCLC; 3.01 µM with HOP-92 NSCLC; 3.02 µM with HOP-62 NSCLC; 3.81 µM in the assay on SF-539 CNS; 3.9 µM in the assay with UACC-62 melanoma; 3.38 µM in the assay with SN12C renal. For the same compound, the concentration for total growth inhibition (TGI) is 3.36 µM in the assay with UACC-257 melanoma, 5.09 µM with NCI/ADR-RES ovarian, 3.23 µM with MALME-3M melanoma and 3.42 µM in the assay with SK-MEL-28 melanoma.
For `C=Cc1cc2c(cc1O)CC[C@@H]1[C@@H]2CC[C@]2(C)[C@@H](O)CC[C@@H]12`, the total growth inhibition concentration (TGI) with EKVX NSCLC is 29 µM; with SK-OV-3 ovarian, 28.3 µM; with KM12 colon, 14.9 µM; with CCRF-CEM leukemia, 17.2 µM; in the assay with HOP-62 NSCLC, 19.8 µM; in the assay with OVCAR-5 ovarian, 41.3 µM. Moreover, the TGI in the assay on SF-539 CNS is 5.53 µM; in the assay on UACC-62 melanoma, 8.65 µM; with COLO 205 colon, 30.1 µM; in the assay with SN12C renal, 19.5 µM; in the assay with UACC-257 melanoma, 8.87 µM; in the assay on NCI/ADR-RES ovarian, 5.3 µM. The values for the TGI with MALME-3M melanoma, in the assay with HL-60(TB) leukemia and in the assay on SK-MEL-28 melanoma were 10.4 µM, 7.27 µM and 16.7 µM, respectively. In addition, the GI50 (usually the concentration that inhibits growth by half) with HOP-62 NSCLC is 5.04 µM; with UACC-62 melanoma, 2.53 µM; in the assay with SN12C renal it was 5.12 µM.
Take `COc1ccc2c(c1)CCCN1CCc3cc(OC)c(OC)cc3C21` (stereo not given): the total growth inhibition concentration (TGI) in the assay on EKVX NSCLC, in the assay on SK-OV-3 ovarian, with KM12 colon, in the assay on CCRF-CEM leukemia, with HOP-62 NSCLC and in the assay with OVCAR-5 ovarian was > 100 µM each time. For the same compound, the total growth inhibition concentration (TGI) in the assay with SF-539 CNS was > 100 µM; in the assay with UACC-62 melanoma, > 100 µM; with COLO 205 colon it was > 100 µM; in the assay with SN12C renal it was > 100 µM; in the assay on UACC-257 melanoma, > 100 µM; in the assay on NCI/ADR-RES ovarian, 56 µM. Besides, the TGI in the assay with MALME-3M melanoma, in the assay on HL-60(TB) leukemia and in the assay with SK-MEL-28 melanoma was > 100 µM in each case.
